Assay [1] addresses T1, LXRβ ligand-binding domain (LBD) (Homo sapiens, UniProt P55055, INS174Q).
T1 construct: or LXR (amino acids 156-461); expressed in transfected cells; host or cells: HEK293
T1 sequence (P55055 with tags, fused parts or gaps INS174Q limits assumed): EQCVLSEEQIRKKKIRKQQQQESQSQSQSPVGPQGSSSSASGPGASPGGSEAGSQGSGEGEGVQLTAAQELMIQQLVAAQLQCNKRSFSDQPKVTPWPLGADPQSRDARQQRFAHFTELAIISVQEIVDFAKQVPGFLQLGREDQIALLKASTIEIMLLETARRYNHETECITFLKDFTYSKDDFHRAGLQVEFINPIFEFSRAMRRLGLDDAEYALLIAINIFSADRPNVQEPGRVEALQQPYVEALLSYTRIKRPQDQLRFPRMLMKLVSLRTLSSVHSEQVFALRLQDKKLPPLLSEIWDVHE
The assay can be described thus: LXR Gal4 reporter transient transfection assay, mammalian two-hybrid, LBD-M2H Gal4β. In kind it is cell-based. The following applies: HEK293 cells; inverse agonist unless *. The protocol: (§1) The tested compounds were usually dissolved, tested and stored as 20 mM stock solutions in DMSO. Since sulfonyl acetic acid derivatives tend to decarboxylate under these conditions, these stock solutions were prepared, tested and stored as 20 mM DMSO stock solutions containing 100 mM trifluoroacetic acid (5 equivalents). Sulfonyl acetic acid derivatives are shelf stable as solid at rt for long time as reported by Griesbrecht et al. (Synlett 2010:374) or Faucher et al. (J. Med. Chem. 2004; 47:18).
(§2) LXR Gal4 Reporter Transient Transfection Assays
(§3) LXRα and LXRβ activity status was determined via detection of interaction with coactivator and corepressor proteins in mammalian two-hybrid experiments (M2H). For this, via transient transfection the full length (FL) proteins of LXRα (amino acids 1-447; NP005684; SEQ ID NO:1) or LXRβ-(amino acids 1-461; NP009052; SEQ ID NO:2) or the ligand-binding domains (LBD) of LXRα (amino acids 155-447 SEQ ID NO:3) or LXR (amino acids 156-461; SEQ ID NO:4) were expressed from pCMV-AD (Stratagene) as fusions to the transcriptional activation domain of NFkB. As cofactors, domains of either the steroid receptor coactivator 1 (SRC1; amino acids 552-887; SEQ ID NO:5) or of the corepressor NCoR (amino acids 1906-2312; NP006302; SEQ ID NO:6) were expressed as fusions to the DNA binding domain of the yeast transcription factor GAL4 (from pCMV-BD; Stratagene). Interaction was monitored via activation of a coexpressed Firefly Luciferase Reporter gene under control of a promoter containing repetitive GAL4 response elements (vector pFRLuc; Stratagene). Transfection efficiency was controlled via cotransfection of constitutively active pRL-CMV Renilla reniformis luciferase reporter (Promega). HEK293 cells were grown in minimum essential medium (MEM) with 2 mM L-glutamine and Earle's balanced salt solution supplemented with 8.3% fetal bovine serum, 0.1 mM non-essential amino acids, 1 mM sodium pyruvate, at 37° C. in 5% CO2. 3.5×10^4 cells/well were plated in 96-well cell culture plates in growth medium supplemented with 8.3% fetal bovine serum for 16-20 h to—90% confluency. For transfection, medium was taken off and LXR and cofactor expressing plasmids as well as the reporter plasmids are added in 30 μL OPTIMEM/well including polyethylene-imine (PEI) as vehicle. Typical amounts of plasmids transfected/well: pCMV-AD-LXR (5 ng), pCMV-BD-cofactor (5 ng), pFR-Luc (100 ng), pRL-CMV (0.5 ng). Compound stocks were prepared in DMSO, prediluted in MEM to a total volume of 120 μL, and added 4 h after addition of the transfection mixture (final vehicle concentration not exceeding 0.2%). Cells were incubated for additional 16 h, lysed for 10 min in 1×Passive Lysis Buffer (Promega) and Firefly and Renilla luciferase activities were measured sequentially in the same cell extract using buffers containing D-luciferine and coelenterazine, respectively. Measurements of luminescence were done in a BMG-luminometer.

The target in assay [2] is T2, LXRα ligand-binding domain (LBD) (Homo sapiens, UniProt Q13133).
T2 construct: expressed in transfected cells; host or cells: HEK293
T2 sequence (Q13133 155-447): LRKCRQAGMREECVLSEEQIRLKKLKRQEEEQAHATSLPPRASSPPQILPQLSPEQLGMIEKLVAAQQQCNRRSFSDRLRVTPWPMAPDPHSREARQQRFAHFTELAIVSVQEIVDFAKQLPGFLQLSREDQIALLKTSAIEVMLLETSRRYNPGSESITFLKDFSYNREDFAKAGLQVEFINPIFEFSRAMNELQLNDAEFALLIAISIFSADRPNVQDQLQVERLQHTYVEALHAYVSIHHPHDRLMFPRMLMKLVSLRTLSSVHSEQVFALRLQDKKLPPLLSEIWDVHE
The assay can be described thus: LXR Gal4 reporter transient transfection assay, mammalian two-hybrid, LBD-M2H Gal4α. In kind it is cell-based. The following applies: HEK293 cells; inverse agonist unless *. The protocol:
as §1, §2, §3

Assay [3] addresses T3, GST-LXRβ ligand-binding domain (Homo sapiens, UniProt P55055, INS174Q).
T3 construct: amino acids 156-461; NP009052; made in house; host or cells: E. coli
T3 sequence (P55055 with tags, fused parts or gaps INS174Q limits assumed): T1 sequence (P55055 with tags, fused parts or gaps INS174Q limits assumed)
The assay can be described thus: TR-FRETβ activity assay (NCoA3 coactivator peptide recruitment). The following applies: 1 μM 24(S)-25-epoxycholesterol as prestimulating agonist; inverse agonist unless *. It counts as biochemical. The gist of the method:
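Coactivator recruitment read as TR-FRET (ex 340, em 615 and 665 nm) after 1 h equilibration at 4° C, in triplicate. Mix held 76 nM GST-tagged LXRβ LBD (aa 156-461, E. coli), 400 nM biotin-NCoA3 peptide, Tb-cryptate anti-GST, streptavidin-XL665, 240 mM KCl buffer.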

Our source for the EC50 and FRETβ values is patent US20200131144A1, “AMINE OR (THIO)AMIDE CONTAINING LXR MODULATORS” (Phenex-FXR GmbH, priority 2017, published 2020).

pEC50: −log10 of the molar value.

Consider `COc1cc(-c2ccc3c(c2)C(C)(C)C(=O)OC3)ccc1CN(Cc1ccc(C(F)(F)F)o1)Cc1c(C)ccc2ccccc12` [7/9], for which the pEC50 in assay [1] is > 7.00; in assay [2], 5.00 to 6.00; in assay [3], 5.00 to 6.00.
Regarding `Cc1ccc2ccccc2c1CN(Cc1ccc(C(F)(F)F)o1)Cc1ccc(-c2cccc(C(C)(C)C(=O)O)c2)c2nccn12` [7/15], the negative logarithm of the EC50 (pEC50) in assay [1] was > 7.00; in assay [2] it was 6.00 to 7.00; in assay [3], 5.00 to 6.00.
Consider `Cc1cc(C)c(C(=O)N(Cc2ccc(-c3cccc(CCC(=O)O)c3)cc2)Cc2ccc(C(F)(F)F)o2)c(C)c1` [10/2], for which the pEC50 in assay [1] was > 7.00; in assay [2], 6.00 to 7.00; in assay [3], 5.00 to 6.00.
As for `Cc1cc(C)c(C(=O)N(Cc2ccc(-c3cccc(OCC(=O)O)c3)cc2)Cc2ccc(C(F)(F)F)o2)c(C)c1` [10/3], the pEC50 in assay [1] is 6.00 to 7.00; in assay [2], 6.00 to 7.00; in assay [3], < 5.00.
On to `Cc1ccc2ccccc2c1CN(Cc1ccc(-c2cc(C(C)(C)C(=O)O)ccn2)cc1)Cc1ccc(C(F)(F)F)o1` [14/1], for which the results for the negative-log EC50 (pEC50) in assay [1], in assay [2] and in assay [3] were > 7.00, 6.00 to 7.00 and 5.00 to 6.00, respectively.
`Cc1ccc2ccccc2c1CN(Cc1ccc(-c2cccc(C(C)(C)C(=O)O)n2)cc1)Cc1ccc(C(F)(F)F)o1` [14/2]: the pEC50 in assay [1] is > 7.00; in assay [2], 6.00 to 7.00; in assay [3] it was 5.00 to 6.00.
On to `Cc1ccc2ccccc2c1CN(Cc1ccc(-c2ccnc(C(C)(C)C(=O)O)c2)cc1)Cc1ccc(C(F)(F)F)o1` [14/3], for which the pEC50 in assay [1] is > 7.00; in assay [2], > 7.00; in assay [3] it was 6.00 to 7.00.
For `Cc1cc(C)c(CN(Cc2ccc(C(F)(F)F)o2)Cc2ccc(-c3cccc(S(=O)(=O)CC(=O)O)c3)cc2Cl)c(C)c1` [15/3], the pEC50 in assay [1] is 6.00 to 7.00; in assay [2] it was 5.00 to 6.00; in assay [3] it was 5.00 to 6.00.
On to `COc1cc(-c2cccc(C(C)(C)C(=O)O)c2)cnc1CN(Cc1ccc(C(F)(F)F)o1)Cc1c(C)ccc2ccccc12` [22/4], for which the values for the pEC50 in assay [1], in assay [2] and in assay [3] were > 7.00, 5.00 to 6.00 and 6.00 to 7.00, respectively.
As for `COc1cc(-c2cccc(C(C)(C)C(=O)O)c2)ccc1CN(Cc1ccc(C(F)(F)F)o1)Cc1c(C)cc(C)cc1C` [22/12], the pEC50 in assay [1] was > 7.00; in assay [2] it was 6.00 to 7.00; in assay [3], 6.00 to 7.00.
In the case of `Cc1ccc2cccnc2c1CN(Cc1ccc(-c2cccc(C(C)(C)C(=O)O)c2)cc1)Cc1ccc(C(F)(F)F)o1` [24/2], the negative logarithm of the EC50 (pEC50) in assay [1] was > 7.00; in assay [2], 6.00 to 7.00; in assay [3], 5.00 to 6.00.
As to `Cc1ncc2ccccc2c1CN(Cc1ccc(-c2cccc(C(C)(C)C(=O)O)c2)cc1)Cc1ccc(C(F)(F)F)o1` [24/4], the figures for the pEC50 in assay [1], in assay [2] and in assay [3] were > 7.00, > 7.00 and 6.00 to 7.00, respectively.
Turning to `Cc1nc2ccccc2c(CN(Cc2ccc(-c3cccc(C(C)(C)C(=O)O)c3)cc2)Cc2ccc(C(F)(F)F)o2)c1C` [24/5], the negative logarithm of the EC50 (pEC50) in assay [1] and in assay [2] was > 7.00 each time. In assay [3], the FRETβ result is reported as “D*”.
Regarding `Cc1cc(C)c2ccccc2c1CN(Cc1ccc(-c2cccc(C(C)(C)C(=O)O)c2)cc1)Cc1ccc(C(F)(F)F)o1` [24/6], the negative logarithm of the EC50 (pEC50) is > 7.00 in assay [1], > 7.00 in assay [2] and 6.00 to 7.00 in assay [3].
Regarding `CC(C)(C(=O)O)c1cccc(-c2ccc(CN(Cc3ccc(C(F)(F)F)o3)Cc3cccc4nonc34)cc2)c1` [25/1], the negative logarithm of the EC50 (pEC50) was > 7.00 in assay [1] and 6.00 to 7.00 in assay [2]. In addition, the FRETβ entry in assay [3] was “B*”.
As to `CC(C)(C(=O)O)c1cccc(-c2ccc(CN(Cc3ccc(C(F)(F)F)o3)Cc3cccc4c3OC(F)(F)O4)cc2)c1` [25/2], the pEC50 in assay [1] was > 7.00; in assay [2], 6.00 to 7.00.
As to `Cc1ccc2ccccc2c1CN(Cc1ccc(-c2cncc(C(C)(C)C(=O)O)c2)cc1)Cc1ccc(C(F)(F)F)o1` [26/1], the pEC50 in assay [1] is > 7.00; in assay [2], 6.00 to 7.00; in assay [3], 5.00 to 6.00.
Consider `Cc1ccc2ccccc2c1CN(Cc1ccc(-c2cccc(CC(C)(C)C(=O)O)c2)cc1)Cc1ccc(C(F)(F)F)o1` [26/2], for which the pEC50 is > 7.00 in assay [1], 6.00 to 7.00 in assay [2] and 5.00 to 6.00 in assay [3].
For the compound `Cc1ccc2ccccc2c1CN(Cc1ccc(-c2nc(C(C)(C)C(=O)O)cs2)cc1)Cc1ccc(C(F)(F)F)o1` [26/3], the pEC50 is > 7.00 in assay [1] and 5.00 to 6.00 in assay [3].
For the compound `CC(C)(C(=O)O)c1cccc(-c2ccc(CN(Cc3ccc(C(F)(F)F)o3)C(=O)C34CC5CC(CC(C5)C3)C4)cc2)c1` [27/56], the values for the negative logarithm of the EC50 (pEC50) in assay [1] and in assay [2] were > 7.00 and 6.00 to 7.00, respectively. Moreover, the FRETβ entry in assay [3] is “B*”.
For the compound `CC(C)(C(=O)O)c1cccc(-c2ccc(CN(Cc3ccc(C(F)(F)F)o3)Cc3c(OC(F)F)ccc4ccccc34)cc2)c1` [27/68], the negative-log EC50 (pEC50) in assay [1], in assay [2] and in assay [3] was > 7.00 throughout.
In the case of `CC(C)(C(=O)O)c1cccc(-c2ccc(CN(Cc3ccc(C(F)(F)F)o3)Cc3c(C(F)F)ccc4ccccc34)cc2)c1` [27/69], the pEC50 was > 7.00 in assay [1], > 7.00 in assay [2] and 6.00 to 7.00 in assay [3].
`CC(C)(C(=O)O)c1cccc(-c2ccc(CN(Cc3ccc(C(F)(F)F)o3)C(=O)c3cccn4nccc34)cc2)c1` [27/70]: the negative logarithm of the EC50 (pEC50) in assay [1] was > 7.00; in assay [2] it was 6.00 to 7.00; in assay [3], 6.00 to 7.00.
For `CC(c1cccc2ccccc12)N(Cc1ccc(-c2cccc(S(=O)(=O)CC(=O)O)c2)cc1)Cc1ccc(C(F)(F)F)o1` (stereo not drawn) [Example 7, 2-((4′-(((1-(Naphthalen-1-yl)ethyl)((5-(trifluoromethyl)furan-2-yl)methyl)amino)methyl)-[1,1′-biphenyl]-3-yl)sulfonyl)acetic acid], the pEC50 in assay [1], in assay [2] and in assay [3] was > 7.00 in each case.
As for `COC(=O)CS(=O)(=O)c1cc(-c2ccc(CN(Cc3ccc(C(F)(F)F)o3)Cc3c(C)cc(C)cc3C)cc2)cc(F)c1CO` [Example 13], the negative-log EC50 (pEC50) in assay [1] is > 7.00; in assay [2], 5.00 to 6.00; in assay [3], 6.00 to 7.00.
Turning to `Cc1nc2ccccc2nc1CN(Cc1ccc(-c2cccc(C(C)(C)C(=O)O)c2)cc1)Cc1ccc(C(F)(F)F)o1` [Example 25], the negative logarithm of the EC50 (pEC50) in assay [1] was 6.00 to 7.00; in assay [3], < 5.00.

Broadly, the pEC50 is the negative decadic logarithm of the EC50, by convention in mol/L. Higher therefore signals a low EC50.
